Data set [1] deals with SARS-CoV-2. Briefly: quantitative plaque assay for SARS-CoV-2 in VeroE6 cells. The format is cell-based. More on the design: lowest concentration with significant reduction in viral load: unit not given here. To be noted: for suppression of the viral burden elicited by SARS-CoV-2: MOI 0.01, 24 Hr after the initial infection, simultaneous treatment with virus plus lipid. As for the experimental part: VeroE6 cells were infected with SARS-CoV-2 at an MOI=0.01 in either the absence of lipids, or presence of POPG, or PI, or POPC, at concentrations of 250 μg/ml-1000 μg/ml (SARS-CoV-2+POPG, SARS-CoV-2+PI) or the control lipid phosphatidylcholine (PC), at various concentrations (250 μg-1000 μg/ml) (SARS-CoV-2+PC). Cells were preincubated with lipids 30 mins before viral inoculation. Culture media was harvested at 24 hr and processed for quantitative plaque assay for SARS-CoV-2 (FIG. 1A) and for viral yield as a function of phospholipid concentration (FIG. 1). The data are shown as mean+/−SE for three independent experiments in log10 scale. is a graph of viral yield as a function of phospholipid concentration.
A sample holder containing 96 wells (3 plates) was provided and was plated with VeroE6 cells (a cell lineage isolated from kidney epithelial cells extracted from an African green monkey) at a concentration of 5×10^4 cells/well in 100 μl of medium. The medium utilized comprised Dulbecco's Modified Eagle Medium (DMEM), 5% fetal bovine serum (FCS), 1% L-glutamine, and 10,000 U/ml penicillin-streptomycin (PS). Here, it is noted that the antibiotics penicillin and streptomycin are commonly utilized to prevent bacterial contamination of cell cultures due to their effective combined action against gram-positive and gram-negative bacteria.
The wells were washed two times with calcium-free and magnesium-free phosphate buffered saline (PBS) (100 μl/well), and then an additional time with a culture medium consisting of DMEM, L-glutamine, 0.1% bovine serum albumin (BSA) and 10,000 U/ml PS.
The cells were then preincubated with lipids in the culture medium (100 μl/well) for 30-60 minutes at 37° C. Samples of SARS-CoV-2 virus were added at multiplicities of infection (MOI) of 0.01 and the virus was allowed to absorb for 2 hours at 37° C. […]
FIGS. 1A and 1B depicts the results obtained for quantitative plaque assay for SARS-CoV-2 (FIG. 1A) and for % viral yield as a function of phospholipid concentration (FIG. 1B).

The subject of data set [2] is SARS-CoV-2. In words: cytopathic effect by SARS-CoV-2 in VeroE6 cells (histological images). The format is cell-based. Particulars: 72 hrs after infection, POPG 1000 μg/ml, PI 500 μg/ml, PC 2000 μg/ml. On the technique in general: Damage to the host cells serves as the signal in cytopathic effect assays.
The subject of data set [3] is SARS-CoV-2. In words: SARS-CoV-2 replication by qRT-PCR in differentiated nasal epithelial cells from a patient with COPD. To be noted: 48 hrs, 5 mg/ml POPG, 2 mg/ml PI. The format is cell-based. A general note: In qPCR the cycle at which signal appears reflects the starting amount.
Data set [4] relates to SARS-CoV-2. The format is cell-based. Particulars: 48 hrs; for reduction of SARS-CoV-2 mRNA expression: healthy control subjects (n=3), lipid 16 hrs before infection, 5 mg/ml POPG, 2 mg/ml PI.
In data set [5] the target is T1, SARS-CoV-2 S1 ECD protein (Severe acute respiratory syndrome coronavirus 2, UniProt P0DTC2).
T1 construct: SARS-CoV-2 S1 ECD protein
In words: binding to SARS-CoV-2 S1 ECD protein.

Data set [6] deals with VeroE6 cells. In words: cell viability assays on VeroE6 cells. The format is cell-based, African green monkey. Particulars: 2 mg/ml.
The test system of data set [7] is primary human bronchial epithelial cells. Briefly: 3H-leucine protein synthesis and secretion in primary human bronchial epithelial cells in ALI cultures. The format is cell-based. Particulars: for pleiotropic inhibition of metabolism (3H-intracellular protein synthesis, 3H secreted protein): 64 h with 3H-leucine, 5 mg/mL POPG or 2 mg/ml PI in apical media; for cytotoxic effects on primary airway epithelial cells: cells from patients with COPD as worded in b103 (FIGS. 11A-11B). As for the experimental part:
Bronchial epithelia cells were incubated for 64 h with 3H-leucine in either the presence, or absence of 5 mg/mL of POPG; or 2 mg/ml of PI in only the apical media. 3H-intracellular protein synthesis (FIG. 11A), and 3H secreted protein in apical media (FIG. 11B) are shown. […]

Data set [8] relates to SARS-CoV-2. Briefly: hamster model of SARS-CoV-2 infection, intranasal treatment. The format is in vivo, Syrian hamsters.

`CCCCCCCC/C=C\CCCCCCCC(=O)O[C@H](COC(=O)CCCCCCCCCCCCCCC)COP(=O)(O)OCC(O)CO` (stereo partly shown) [POPG, palmitoyl-oleoyl-phosphatidylglycerol]: the “suppression of the viral burden elicited by SARS-CoV-2” value in data set [1] was 90%. In data set [2], the “state of infected cell cultures (cytopathic effect)” value (“state of infected cell cultures” below) is given as “remained intact”. Moreover, the “attenuation of SARS-CoV-2 replication” value in data set [3] was 80%. Also, in data set [4], the “reduction of SARS-CoV-2 mRNA expression” value turned out to be 75% and the “replication in differentiated nasal epithelial cells of severe asthmatics” value is on record as “inhibit replication”. In data set [5], the “binding to SARS-CoV-2 S1 ECD protein” value was “weak affinity and non-specific manner”. Moreover, the “toxicity on VeroE6 cells” value in data set [6] was “Neither POPG, PI or POPC elicited toxicity”. For the same compound, in data set [7], the “pleiotropic inhibition of metabolism (3H-intracellular protein synthesis, 3H secreted protein)” value is listed as “does not produce pleiotropic inhibition of metabolism” and the “cytotoxic effects on primary airway epithelial cells” value was “neither POPG nor PI had cytotoxic effects”.

As to “phosphatidylcholine [PC, reference compound]”, in data set [2], the “state of infected cell cultures” value is listed as “significant cytopathic effects”. For the same compound, the “effect on SARS-CoV-2 replication” value in data set [4] (healthy control subjects, PC 10 mg/ml) is “did not affect SARS-CoV-2 replication”. The “toxicity on VeroE6 cells” value in data set [6] is “Neither POPG, PI or POPC elicited toxicity”.

phosphatidylinositol [PI]: the “lowest concentration with significant reduction in viral load” value in data set [1] (24 hr) is given as ≥ 250. The “suppression of the viral burden elicited by SARS-CoV-2” value in data set [1] came to 99%. For the same compound, the “state of infected cell cultures” value in data set [2] was “remained intact”. The “attenuation of SARS-CoV-2 replication” value in data set [3] was 85%. In data set [4], the “reduction of SARS-CoV-2 mRNA expression” value was found to be 87% and the “replication in differentiated nasal epithelial cells of severe asthmatics” value is listed as “inhibit replication”. Also, the “binding to SARS-CoV-2 S1 ECD protein” value in data set [5] was “weak affinity and non-specific manner”. Further, in data set [6], the “toxicity on VeroE6 cells” value was “Neither POPG, PI or POPC elicited toxicity”. Also, the “SARS-CoV-2 replication in hamsters (plaque assays of pharyngeal swabs)” value in data set [8] (PI 2 mg/animal intranasal, days 1-3) is reported as “inhibits SARS-CoV-2 replication”. Besides, the “mean turbinate viral load” value in data set [8] (hamsters, 2 mg PI intranasal, after 24 hours, untreated group 2.4E+04) is given as 9.3E+01. Moreover, in data set [8] (hamsters, single dose of 2 mg PI, after 24 hours, versus untreated), the “% inhibition of viral load” value is 99.6%. Moreover, in data set [7], the “pleiotropic inhibition of metabolism (3H-intracellular protein synthesis, 3H secreted protein)” value is given as “does not produce pleiotropic inhibition of metabolism” and the “cytotoxic effects on primary airway epithelial cells” value is recorded as “neither POPG nor PI had cytotoxic effects”.
